Data from article PMC7395068, “The evolution of strategies to minimise the risk of human drug-induced liver injury (DILI) in drug discovery and development” (Archives of Toxicology, 2020).
Read-outs that look alike come from different tables or passages of the source.

Experiments:
hLiMTs [1] = assay: Combined HCI (HCS) and cellular ATP 3D assay in hLiMTs; conditions: for AC50 / minimal effective concentration: Homo sapiens
hLiMTs [2] = conditions: cited from earlier work
[3] = cited from earlier work
[4] = cited from earlier work; remark: listed apart in the source
[5] = plasma free fraction; cited from earlier work
[6] = tested on: isolated mouse liver mitochondria; conditions: In vitro Assay; ref Porceddu 2012; cited from earlier work
HepaRG spheroids = assay: Combined HCI (HCS) and cellular ATP 3D assay in HepaRG spheroids; conditions: for AC50 / minimal effective concentration: Homo sapiens
PHH spheroids = conditions: cited from earlier work
PHH = conditions: cited from earlier work
[7] = tested on: THLE or HepG2 cells, isolated mitochondria, BSEP; conditions: cited from earlier work
[8] = tested on: HepG2 C3A spheroid, BSEP, Glu/Gal in HepG2 cells, bioactivation; conditions: cited from earlier work
human hepatocytes = conditions: cited from earlier work
[9] = tested on: HepG2 cells, primary human hepatocytes; conditions: In vitro Assay; ref Garside 2014; cited from earlier work
[10] = Microtissue model structural based (HCI), combined HCS and ATP, MEC < 25 × Cmax.tot cut-off
[11] = In vitro Assay, ref Proctor 2017
[12] = Modeled in vitro assays (cytotoxicity, mitochondrial dysfunction, BSEP), ref Aleo et al. 2019

## C1CCC(C(CC2CCCCN2)C2CCCCC2)CC1 (centres unmarked) [perhexiline]
hLiMTs [1]; read-out: ATP endpoint AC50
  AC50: 1.69 µM
hLiMTs [1]; read-out: ATP endpoint MEC
  minimal effective concentration: 1.49 µM
hLiMTs [1]; read-out: HCS endpoint AC50
  AC50: 1.75 µM
hLiMTs [1]; read-out: HCS endpoint MEC
  minimal effective concentration: 0.354 µM
hLiMTs [1]; [10]
  DILI prediction hLiMTs (HCS-MEC): +VE (MEC < 25 × Cmax.tot cut-off)
hLiMTs [1]; hLiMTs, ATP endpoint, cut-off <25x Avg Cmax
  hLiMTs <25x Avg Cmax ATP: +ve
hLiMTs [1]; hLiMTs, ATP endpoint, cut-off <100x Avg Cmaxu
  hLiMTs <100x Avg Cmaxu ATP: +ve (<100x Avg Cmaxu)
hLiMTs [1]; hLiMTs, HCS endpoints, cut-off <25x Avg Cmax
  hLiMTs <25x Avg Cmax HCS: +ve
hLiMTs [1]; hLiMTs, HCS endpoints, cut-off <100x Avg Cmaxu
  hLiMTs <100x Avg Cmaxu HCS: +ve (<100x Avg Cmaxu)
hLiMTs [1]; hLiMTs, all endpoints (ATP and HCS), cut-off <25x Avg Cmax
  hLiMTs <25x Avg Cmax All: +ve
hLiMTs [1]; hLiMTs, all endpoints, Cmax max used
  hLiMTs Cmax max All: +ve
hLiMTs [1]; hLiMTs, all endpoints, Cmax min used
  hLiMTs Cmax min All: +ve
hLiMTs [1]; hLiMTs, all endpoints, cut-off <10 uM
  hLiMTs <10 uM All: +ve (<10 uM)
hLiMTs [1]; hLiMTs, all endpoints, cut-off <100x Avg Cmaxu
  hLiMTs <100x Avg Cmaxu All: +ve (<100x Avg Cmaxu)
hLiMTs [2]; [11]
  hLiMTs ATP <100uM: +VE (IC50 threshold of 100 µM)
hLiMTs [2]; hLiMTs, ATP, IC50 threshold 100 µM, ref Proctor et al. 2017
  hLiMTs/100uM, Proctor (2017): +VE (IC50 threshold of 100 µM)
[3]; Chen et al. 2016 or literature alignment, ref Chen et al. 2016
  Assigned DILI category: 3
[3]; […]
  In vivo DILI: +VE
[3]; ref Aleo 2019
  In vivo DILI: +VE
[3]; ref Garside 2014
  In vivo DILI: +VE
[3]; ref Porceddu 2012
  In vivo DILI: +VE
[3]; ref Proctor 2017
  In vivo DILI: +VE
[3]; ref Vorrink 2018
  In vivo DILI: +VE
[3]; ref Williams 2019
  In vivo DILI: +VE
[3]; ref Xu 2008
  In vivo DILI: +VE
[4]; LTKB DILIrank category, ref Chen et al. 2016
  DILI severity category (Chen et al. [2016]): Most
[4]; human DILI classification, LTKB DILIrank, ref Chen et al. 2016
  DILI severity category (Chen 2016): Most
[4]; human DILI severity, ref Chen et al.
  DILI severity category: Most
[4]; ref Chen 2016
  DILI +VE (5-8), DILI -VE (-4): +VE
  DILI severity category: vMost-DILI-Concern
[5]
  fu: 0.100
[6]
  in vitro data EC2<=1x Cmax: +VE
  in vitro data EC20<=2uM: +VE
HepaRG spheroids; HepaRG, ATP endpoint, cut-off <25x Avg Cmax
  HepaRG <25x Avg Cmax ATP: +ve
HepaRG spheroids; HepaRG, ATP endpoint, cut-off <100x Avg Cmaxu
  HepaRG <100x Avg Cmaxu ATP: +ve (<100x Avg Cmaxu)
HepaRG spheroids; HepaRG, HCS endpoints, cut-off <25x Avg Cmax
  HepaRG <25x Avg Cmax HCS: +ve
HepaRG spheroids; HepaRG, HCS endpoints, cut-off <100x Avg Cmaxu
  HepaRG <100x Avg Cmaxu HCS: +ve (<100x Avg Cmaxu)
HepaRG spheroids; HepaRG, all endpoints (ATP and HCS), cut-off <25x Avg Cmax
  HepaRG <25x Avg Cmax All: +ve
HepaRG spheroids; HepaRG, all endpoints, Cmax max used
  HepaRG Cmax max All: +ve
HepaRG spheroids; HepaRG, all endpoints, Cmax min used
  HepaRG Cmax min All: +ve
HepaRG spheroids; HepaRG, all endpoints, cut-off <10 uM
  HepaRG <10 uM All: +ve (<10 uM)
HepaRG spheroids; HepaRG, all endpoints, cut-off <100x Avg Cmaxu
  HepaRG <100x Avg Cmaxu All: +ve (<100x Avg Cmaxu)
HepaRG spheroids; HepaRG, read-out: ATP endpoint AC50
  AC50: 3.69 µM
HepaRG spheroids; HepaRG, read-out: ATP endpoint MEC
  minimal effective concentration: 1.76 µM
HepaRG spheroids; HepaRG, read-out: HCS endpoint AC50
  AC50: 6.32 µM
HepaRG spheroids; HepaRG, read-out: HCS endpoint MEC
  minimal effective concentration: 0.693 µM
HepaRG spheroids; [10]
  DILI prediction HepaRG spheroids (HCS-MEC): +VE (MEC < 25 × Cmax.tot cut-off)
PHH spheroids; In vitro Assay, ref Vorrink 2018
  hLiMTs ATP <20 x Cmax: +VE (IC20 < 20 × Cmax.tot cut-off)
PHH spheroids; PHH spheroids, ATP, 14 days, IC20 < 20 × Cmax.tot, ref Vorrink et al. 2018
  DILI in vitro assay prediction, Vorrink (2018): +VE (IC20 < 20 × Cmax.tot cut-off)
PHH; 2D PHH, ATP, IC50 threshold 100 µM, ref Proctor et al. 2017
  PHH/100uM, Proctor (2017): +VE (IC50 threshold of 100 µM)
PHH; [11]
  PHH ATP <100uM: +VE (IC50 threshold of 100 µM)
[7]; In vitro Assay, ref Aleo 2019
  Partition Hybrid HRM Score: +VE
  Ro2 Hybrid HRM Score: +VE
[7]; [12]
  Partition Hybrid HRM Score ≥4, Aleo (2019): +VE (Partition Hybrid HRM Score ≥4)
  Partition Hybrid HRM Score ≥8, Aleo (2019): +VE (Partition Hybrid HRM Score ≥8)
  Rule of Two hybrid HRM Score ≥3, Aleo (2019): +VE (Rule of Two hybrid HRM Score ≥3)
  Rule of Two hybrid HRM Score ≥8, Aleo (2019): +VE (Rule of Two hybrid HRM Score ≥8)
[8]; Bayesian modeling, ref Williams et al. 2019
  Bayesian Machine Learning DILI prediction, Williams (2019): +VE
[8]; In vitro Assay, ref Williams 2019
  Bayesian Machine Learning: +VE
Human hepatocytes; In vitro Assay, ref Xu 2008
  Structural based (HCI): +VE
Human hepatocytes; Structural based (HCI), human hepatocytes, ref Xu et al. 2008
  DILI in vitro assay prediction, Xu (2008): +VE
[9]
  Cluster 1-6 +VE Assay: +VE
